Assay [1] deals with αvβ6/8 vs other RGD-integrins. Description: Selectivity and potency gain for αvβ6/8, worked out from integrin IC50 values. The assay is classed as binding, human. Particulars: 24 and 30 vs 14; 35 vs 28; 36 vs 30; 47 vs 36.
The target of another assay is T1, Mouse αvβ6 (Mus musculus, UniProt P43406+Q9Z0T9).
T1 sequence (P43406 31-988 limits assumed): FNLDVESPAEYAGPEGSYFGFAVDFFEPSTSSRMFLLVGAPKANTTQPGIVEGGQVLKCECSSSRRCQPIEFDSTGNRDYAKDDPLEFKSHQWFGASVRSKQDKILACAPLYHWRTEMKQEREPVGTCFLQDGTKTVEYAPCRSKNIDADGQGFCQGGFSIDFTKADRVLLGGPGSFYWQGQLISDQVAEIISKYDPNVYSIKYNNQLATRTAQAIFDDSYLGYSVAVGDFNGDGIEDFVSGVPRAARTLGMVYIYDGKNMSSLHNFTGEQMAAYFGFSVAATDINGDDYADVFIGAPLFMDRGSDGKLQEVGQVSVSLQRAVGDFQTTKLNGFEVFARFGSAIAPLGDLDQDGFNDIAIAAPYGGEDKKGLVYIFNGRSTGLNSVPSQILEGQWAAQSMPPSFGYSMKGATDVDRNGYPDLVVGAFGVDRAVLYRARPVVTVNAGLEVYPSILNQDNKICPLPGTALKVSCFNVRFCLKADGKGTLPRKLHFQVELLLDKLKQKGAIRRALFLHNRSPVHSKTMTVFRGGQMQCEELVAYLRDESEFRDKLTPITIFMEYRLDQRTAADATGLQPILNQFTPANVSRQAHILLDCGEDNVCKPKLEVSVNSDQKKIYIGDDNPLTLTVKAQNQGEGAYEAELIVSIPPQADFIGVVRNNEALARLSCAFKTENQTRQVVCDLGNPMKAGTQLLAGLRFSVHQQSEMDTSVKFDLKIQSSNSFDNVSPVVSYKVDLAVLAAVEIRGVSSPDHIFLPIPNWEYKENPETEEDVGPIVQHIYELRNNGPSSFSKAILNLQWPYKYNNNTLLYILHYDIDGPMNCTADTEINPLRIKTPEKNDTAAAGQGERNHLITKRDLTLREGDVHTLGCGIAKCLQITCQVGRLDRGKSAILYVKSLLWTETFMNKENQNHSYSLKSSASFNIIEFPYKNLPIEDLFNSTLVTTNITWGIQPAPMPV
T1 sequence (Q9Z0T9 22-707 limits assumed): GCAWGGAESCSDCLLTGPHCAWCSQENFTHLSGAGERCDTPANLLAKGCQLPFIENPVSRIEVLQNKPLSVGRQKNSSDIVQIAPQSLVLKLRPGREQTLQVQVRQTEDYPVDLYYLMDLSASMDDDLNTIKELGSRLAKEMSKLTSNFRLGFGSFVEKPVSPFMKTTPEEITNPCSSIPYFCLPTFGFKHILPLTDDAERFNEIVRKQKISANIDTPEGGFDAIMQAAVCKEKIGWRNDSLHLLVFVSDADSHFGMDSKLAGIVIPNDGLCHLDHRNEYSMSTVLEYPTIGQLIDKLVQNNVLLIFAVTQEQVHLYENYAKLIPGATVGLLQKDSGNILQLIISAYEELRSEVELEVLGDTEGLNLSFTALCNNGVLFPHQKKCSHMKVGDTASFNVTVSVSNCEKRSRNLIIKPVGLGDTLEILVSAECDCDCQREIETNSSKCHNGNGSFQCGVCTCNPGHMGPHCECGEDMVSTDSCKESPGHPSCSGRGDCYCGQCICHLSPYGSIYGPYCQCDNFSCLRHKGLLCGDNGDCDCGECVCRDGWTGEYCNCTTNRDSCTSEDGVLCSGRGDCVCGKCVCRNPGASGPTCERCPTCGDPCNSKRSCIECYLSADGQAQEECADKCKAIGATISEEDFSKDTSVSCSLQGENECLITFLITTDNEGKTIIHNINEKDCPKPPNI
Briefly: ELISA competition assay, mouse integrin αvβ6. The assay is classed as binding. For orientation: In an ELISA, binding on a coated surface is turned into a signal by an enzyme label.

Assay [2] has as its target T2, integrin αvβ6 (Homo sapiens, UniProt P06756+P18564). Description: ELISA competition assay, integrin αvβ6 binding to LAP.
Assay [3] concerns the target T2, integrin αvβ6. Description: AlphaLISA competition assay vs LAP, biotinylated αvβ6. The assay is classed as binding.
In a further assay the target is integrin αvβ8 (Homo sapiens, UniProt P06756+P26012). Briefly: ELISA competition assay, integrin αvβ8 binding to LAP.

The structures appear in SMILES notation. Bridge positions count the residues as written; N and C are the ends. Peptide text beside a SMILES is read from it.

Here are results for 2 molecules from paper doi:10.1101/2025.01.28.635346v1 (bioRxiv, 2025).

Consider `CC(C)C[C@H](NC(=O)[C@H](CC(=O)O)NC(=O)CNC(=O)[C@H](CCCNC(=N)N)NC(=O)[C@@H](NC(=O)[C@H](Cc1ccccc1)NC(=O)[C@H](Cc1ccc(O)cc1)NC(=O)[C@@H]1CCC(=O)NCC(=O)NCC(=O)N[C@@H](C)C(=O)NCC(=O)N[C@@H](Cc2c[nH]cn2)C(=O)N[C@@H](C(C)C)C(=O)N2CCC[C@H]2C(=O)N1)C(C)C)C(=O)N[C@@H](CCC(N)=O)C(=O)N[C@@H](CO)C(=O)N[C@@H](Cc1ccccc1)C(=O)N[C@@H](Cc1ccc(O)cc1)C(=O)NCC(=O)O` [lassotide 24] (GGAGHVPEYFVRGDLQSFYG-OH; lactam N-8; C-terminus assumed), for which the “improvement in potency (IC50) for αvβ6/8 relative to parent lassotide” value in assay [1] is on record as “up to 7 fold”. Further, the IC50 on Mouse αvβ6 worked out at 7 nM; at integrin αvβ6 [2], 6 nM; at integrin αvβ6 [3], 13 nM.

For `CC[C@H](C)[C@H](NC(=O)[C@H](CC(C)C)NC(=O)[C@H](CC(=O)O)NC(=O)CNC(=O)[C@H](CCCNC(=N)N)NC(=O)[C@@H](NC(=O)[C@H](Cc1ccccc1)NC(=O)[C@H](Cc1ccc(O)cc1)NC(=O)[C@@H]1CCC(=O)NCC(=O)NCC(=O)N[C@@H](CCCNC(=N)N)C(=O)NCC(=O)N[C@@H](Cc2c[nH]cn2)C(=O)N[C@@H](C(C)C)C(=O)N2CCC[C@H]2C(=O)N1)C(C)C)C(=O)N[C@@H](CO)C(=O)N[C@@H](Cc1ccccc1)C(=O)N[C@@H](Cc1ccc(O)cc1)C(=O)NCC(=O)O` [lassotide 30] (GGRGHVPEYFVRGDLISFYG-OH; lactam N-8; C-terminus assumed), the “improvement in potency (IC50) for αvβ6/8 relative to parent lassotide” value in assay [1] is given as 3-4 fold. The IC50 on Mouse αvβ6 stood at 24 nM; on integrin αvβ6 [2] (Human αvß6 IC50, ELISA run in triplicate, mean, Table S1), 17 nM; on integrin αvβ6 [2] (αvβ6 IC50, ELISA competition vs LAP, mean, n ≥ 3) it was 30 nM; at integrin αvβ8, 27 nM.

Broadly, the IC50 is the concentration at which inhibition is half-maximal. A lower IC50 goes with higher potency.
